The values that follow come from patent US20220211692A1, “Modulators of the Cystic Fibrosis Transmembrane Conductance Regulator Protein and Methods of Use” (AbbVie Global Enterprises Ltd., priority 2021, published 2022).

Read-outs that look alike come from different tables or passages of the source. Where only a bound is given, the exact number is not on record here.

In one experiment the target is T1, F508del/F508del CFTR (Homo sapiens, UniProt P13569, DEL508-508).
T1 construct: cells isolated from CF patients with the homozygous mutation; endogenous in cells; host or cells: primary human bronchial epithelial (hBE) cells from CF patients homozygous for F508del
In words: Trans-Epithelial Current Clamp (TECC) assay using primary human bronchial epithelial cells. It is filed as cell-based. The following applies: for Emax (% Dual): maximum percent activity relative to positive control (co-corrector 0.15 μM + potentiator 0.45 μM = 100%); for EC50: primary hBE cells F508del/F508del, test corrector with co-corrector and potentiator, 18-24 hours, equivalent CFTR current. From the text: A cell-based assay was developed using the primary human bronchial epithelial cells (hBE cells) with F508del/F508del CFTR and other mutations.
Primary human bronchial epithelial (hBE) cells from CFTR patients with homozygous F508del/F508del mutation were expanded from 1×10^6 to 250×10^6 cells (Neuberger, T et al., 2011, Methods Mol Biol 741:39-54). For this purpose, cells isolated from CF patients with the homozygous mutation, procured from the CF center tissue procurement and cell culture core at the Marsico Lung Institute at UNC (Randell), the Cystic Fibrosis translational research center at McGill University (University), and Rosalind Franklin University Medical School (RFUMS) were seeded onto 24 well Corning (Cat #3378) filter plates that were coated with 3T3 conditioned media and grown at an air-liquid interface for 35 days using an Ultroser® G supplemented differentiation media. All the primary human bronchial epithelial cells were collected in accordance with institutional review board approval protocols. Apical surface mucus was removed 72 hours before the experiment by incubating the apical surface of the cells for 30 minutes with 3 mM dithiothreitol (DTT) prepared in Dulbecco's phosphate buffered saline (DPBS) with Ca^2+ and Mg^2+. This was followed with aspiration of the mucus from the apical surface along with DPBS. The apical surface was re-washed with phosphate buffered saline (PBS) incubated for 30 minutes followed with aspiration. These hBE cells were then incubated with the desired concentrations of the test C2 corrector compounds along with co-corrector, 4-[(2R,4R)-4-({[1-(2,2-difluoro-1,3-benzodioxol-5-yl)cyclopropyl]carbonyl}amino)-7-(difluoromethoxy)-3,4-dihydro-2H-chromen-2-yl]benzoic acid and potentiator, (5-{3-amino-5-[4-(trifluoromethoxy)benzene-1-sulfonyl]pyridin-2-yl}-1,3,4-oxadiazol-2-yl)methanol, for 18-24 hours at 37° C., 5% CO2. The desired concentrations of the correctors and potentiator compounds were prepared from the 10 mM stocks in differentiation media and were always applied on the basolateral side of the epithelial cells. We also used an assay format where a fixed concentration of potentiator was added chronically along with the corrector compounds. This chronic treatment with the potentiator helped eliminate any interaction that might happen with CFTR modulators (correctors and potentiators) and thereby determined the true efficacy of the modulator combinations reflective of clinical relevance.
The assay uses a Transepithelial Current Clamp (TECC) (Vu, C B et al., 2017; J Med Chem 60:458-473) instrument that can measure the functionality of the mutated channel by measuring the equivalent CFTR current (IEQ) generated by the polarized primary epithelial cells. We used a TECC-24 with a 24-channel electrode manifold allowing for the simultaneous measurement of the transepithelial voltage, VT, and transepithelial resistance, RT, under current clamp conditions, from 24 filters using a 24 well Costar filter plate. The design of the filters in the 24 well filter plates was exactly the same as the design of an individual Transwell filter used in the classical Ussing Chamber with a surface area of 0.33 cm^2. Each measured VT values were corrected for the electrode offset potential measured using buffer alone in a separate plate, and each measured RT values were then corrected for the combined solution series and empty filter resistances. The corrected VT and RT values were then used to calculate the equivalent current, IEQ using Ohm's law (IEQ=VT/RT). The area under the curve (AUC) for the time period between the forskolin peak IEQ response and at the time of bumetanide addition was also calculated using a one-third trapezoid method, in addition to calculating the IEQ. The assay was run in a 24-well format and all 24-wells were measured at the same time point giving a higher throughput for this assay. […]

In the next experiment the target is T2, F508delCFTR (Homo sapiens, UniProt P13569, DEL508-508).
T2 construct: expressed in transfected cells; host or cells: CFBE41o- human lung derived epithelial cell line, doxycycline-induced expression
In words: Cell Surface Expression-Horse Radish Peroxidase (CSE-HRP) assay in CFBE41o-F508delCFTR-HRP cells. The experiment is classed as cell-based. The following applies: for EC50: CFBE41o-F508delCFTR-HRP cells, 18-24 hours at 33° C.; for Emax / Maximum % activity (with co-corrector): normalized to on-plate positive control; for Emax: read-out: Maximum % activity (without co-corrector). How it is done: A cellular assay for measuring the F508delCFTR cell surface expression after correction with test compounds either without or with a co-corrector (2 μM of 3-[(2R,4R)-4-({[1-(2,2-difluoro-1,3-benzodioxol-5-yl)cyclopropyl]carbonyl}amino)-7-methoxy-3,4-dihydro-2H-chromen-2-yl]benzoic acid), was developed in human lung derived epithelial cell line (CFBE41o-) (Veit G et al, (2012) Mol Biol Cell. 23(21): 4188-4202). The development was achieved by expressing the F508delCFTR mutation along with a horseradish peroxidase (HRP) in the fourth exofacial loop, and then measuring the HRP activity using luminescence readout from these cells, CFBE41o-F508delCFTR-HIRP, that were incubated overnight with the test corrector compounds, either without or with the co-corrector. For this primary assay, the CFBE41o-F508delCFTR-HRP cells were plated in 384-well plates (Greiner Bio-one; Cat 781080) at 4,000 cells/well along with 0.5 μg/mL doxycycline to induce the F508delCFTR-HRP expression and further incubated at 37° C., […] for 68-72 hours. The test compounds were then added either without or with a co-corrector at the required concentrations and further incubated for 18-24 hours at 33° C. The highest concentration tested was 20 μM or 30 μM (GI-1 to GIII-36) with an 8-point concentration response curve using a 3-fold dilution in both the test compound without or with the co-corrector. Three replicate plates were run to determine one EC50. All plates contained negative controls (dimethyl sulfoxide, DMSO) and positive control (2 μM or 3 μM (GI-1 to GIII-36) of 3-[(2R,4R)-4-({[1-(2,2-difluoro-1,3-benzodioxol-5-yl)cyclopropyl]carbonyl}amino)-7-methoxy-3,4-dihydro-2H-chromen-2-yl]benzoic acid) as well as on-plate concentration response of the positive control. Post incubation, the plates were washed 5× times with Dulbecco's phosphate buffered saline (DPBS), followed by the addition of the HRP substrate, luminol (50 μL), and measuring the HRP activity using luminescence readout on EnVision® Multilabel Plate Reader (Perkin Elmer; product number 2104-0010). The raw counts from the experiment were analyzed using Accelrys® Assay Explorer v3.3.
Z′ greater than 0.5 was used as passing quality control criteria for the plates. The Z′ is defined as:
1−[3*SDPositive Control+3*SDNegative Control/Absolute(MeanPositive Control−MeanNegative Control)]
The % activity measured at each of the 8 test concentrations of the test compound added either without or with a co-corrector (2 μM or 3 μM (GI-1 to GIII-36) of 3-[(2R,4R)-4-({[1-(2,2-difluoro-1,3-benzodioxol-5-yl)cyclopropyl]carbonyl}amino)-7-methoxy-3,4-dihydro-2H-chromen-2-yl]benzoic acid) was normalized to the on-plate positive control using the following formulae:
% activity (Test compound without co-corrector)=[(test compound without co-corrector response−DMSO response)/(positive control response−DMSO response)]*100
% activity (Test compound with co-corrector)=[(test compound with co-corrector response−DMSO response)/(positive control response−DMSO response)]*100
The maximum % activity achieved for the test compound either without or with a co-corrector at any tested concentration is presented in Table 3 along with the respective EC50's calculated using the following general sigmoidal curve with variable Hill slope equation (described as Model 42 in the Accelrys® Assay Explorer v3.3 software):
General sigmoidal curve with concentration, response, top, bottom, EC50 and Hill slope. This model describes a sigmoidal curve with an adjustable baseline, a. The equation can be used to fit curves where response is either increasing or decreasing with respect to the independent variable, “x”.

Setting [1] is: with co-corrector 2 μM, read-out: EC50 (with co-corrector).
[2] abbreviates: without co-corrector, read-out: EC50 (without co-corrector).

T2 sequence (P13569 with tags, fused parts or gaps DEL508-508): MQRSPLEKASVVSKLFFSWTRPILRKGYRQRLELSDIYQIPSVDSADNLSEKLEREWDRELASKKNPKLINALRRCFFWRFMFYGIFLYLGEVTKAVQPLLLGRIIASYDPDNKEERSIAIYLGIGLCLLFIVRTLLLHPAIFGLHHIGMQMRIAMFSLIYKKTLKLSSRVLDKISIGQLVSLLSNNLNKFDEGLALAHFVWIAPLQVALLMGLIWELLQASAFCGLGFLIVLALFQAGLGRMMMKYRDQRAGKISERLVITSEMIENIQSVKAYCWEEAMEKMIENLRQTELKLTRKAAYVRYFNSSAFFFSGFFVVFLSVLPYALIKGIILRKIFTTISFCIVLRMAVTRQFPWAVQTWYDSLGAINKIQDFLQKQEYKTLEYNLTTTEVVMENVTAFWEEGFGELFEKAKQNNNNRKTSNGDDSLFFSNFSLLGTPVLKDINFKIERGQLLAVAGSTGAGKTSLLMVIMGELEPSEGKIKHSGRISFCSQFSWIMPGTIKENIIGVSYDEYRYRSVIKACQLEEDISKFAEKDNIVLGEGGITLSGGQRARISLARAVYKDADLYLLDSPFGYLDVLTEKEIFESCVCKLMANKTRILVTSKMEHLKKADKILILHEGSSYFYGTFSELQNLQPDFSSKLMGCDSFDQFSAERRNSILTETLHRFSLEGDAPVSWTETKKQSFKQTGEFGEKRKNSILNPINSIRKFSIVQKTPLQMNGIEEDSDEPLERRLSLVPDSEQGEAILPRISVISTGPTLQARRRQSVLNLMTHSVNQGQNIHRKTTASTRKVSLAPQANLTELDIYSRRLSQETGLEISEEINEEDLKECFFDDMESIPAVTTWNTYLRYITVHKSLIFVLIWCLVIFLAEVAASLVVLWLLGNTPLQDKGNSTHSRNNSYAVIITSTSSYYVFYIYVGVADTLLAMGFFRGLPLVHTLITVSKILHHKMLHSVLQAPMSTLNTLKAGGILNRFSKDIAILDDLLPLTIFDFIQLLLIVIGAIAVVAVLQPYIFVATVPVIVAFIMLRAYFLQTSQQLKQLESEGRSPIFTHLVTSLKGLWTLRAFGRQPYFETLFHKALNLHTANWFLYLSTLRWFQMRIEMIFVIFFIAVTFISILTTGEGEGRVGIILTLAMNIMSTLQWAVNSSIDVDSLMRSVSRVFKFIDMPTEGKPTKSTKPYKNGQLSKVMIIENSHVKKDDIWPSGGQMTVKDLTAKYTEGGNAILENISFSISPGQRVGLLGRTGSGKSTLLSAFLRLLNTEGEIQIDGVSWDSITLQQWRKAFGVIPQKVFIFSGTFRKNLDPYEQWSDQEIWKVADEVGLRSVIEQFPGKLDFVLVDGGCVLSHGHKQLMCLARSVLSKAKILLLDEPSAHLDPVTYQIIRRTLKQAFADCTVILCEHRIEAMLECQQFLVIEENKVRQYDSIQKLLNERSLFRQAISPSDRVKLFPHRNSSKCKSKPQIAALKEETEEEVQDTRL
T1 sequence (P13569 with tags, fused parts or gaps DEL508-508): as above

In the case of `COc1ccc(C)cc1[C@@]1(C(=O)NS(=O)(=O)c2cccc3nc(C)ccc23)CC[C@@H](c2ccccc2)O1` [Example 8, (2R,5S)-2-(2-methoxy-5-methylphenyl)-N-(2-methylquinoline-5-sulfonyl)-5-phenyloxolane-2-carboxamide], the “Emax (% Dual)” value at F508del/F508del CFTR was 339 % Dual. The EC50 at F508del/F508del CFTR was 3.2 nM; at F508delCFTR (setting [1]), 440 nM; at F508delCFTR (setting [2]), 590 nM. In addition, on F508delCFTR (without co-corrector), the Emax is 702%.
The matching figures for `COc1ccc(C)cc1[C@@]1(C(=O)NS(=O)(=O)c2cccc3nc(C)ccc23)CC[C@H](c2ccccc2)O1` [Example 12, (2R,5R)-2-(2-methoxy-5-methylphenyl)-N-(2-methylquinoline-5-sulfonyl)-5-phenyloxolane-2-carboxamide]: 315 % Dual, 68 nM, 680 nM, 700 nM and 735%.
Consider `CCc1ccc(Oc2cccnc2OC(F)F)c([C@]2(C(=O)NS(=O)(=O)c3cccc4nc(C)ccc34)CCCO2)c1` [Example 26, (2S)-2-(2-{[2-(difluoromethoxy)pyridin-3-yl]oxy}-5-ethylphenyl)-N-(2-methylquinoline-5-sulfonyl)oxolane-2-carboxamide], for which the “Emax (% Dual)” value on F508del/F508del CFTR was found to be 130 % Dual. Besides, the EC50 turned out to be 171 nM on F508del/F508del CFTR, 3270 nM on F508delCFTR (setting [1]) and 3970 nM at F508delCFTR (setting [2]). Besides, the “Maximum % activity (with co-corrector)” value on F508delCFTR (with co-corrector 2 μM) was found to be 828%. The Emax on F508delCFTR (without co-corrector) was determined as 282%.
Consider `COc1ccc(C)cc1[C@@]1(C(=O)NS(=O)(=O)c2cccc3nc(C)ccc23)C[C@H](C)CO1` [Example 20, (2R,4S)-2-(2-methoxy-5-methylphenyl)-4-methyl-N-(2-methylquinoline-5-sulfonyl)oxolane-2-carboxamide], for which the “Emax (% Dual)” value at F508del/F508del CFTR turned out to be 201 % Dual. In addition, the EC50 on F508del/F508del CFTR came out at 35.1 nM; on F508delCFTR (setting [1]), 680 nM; at F508delCFTR (setting [2]), 1230 nM. The “Maximum % activity (with co-corrector)” value at F508delCFTR (with co-corrector 2 μM) is 862%. The Emax on F508delCFTR (without co-corrector) amounted to 366%.
As for `CCc1ccc(Oc2cccnc2OC)c([C@@]2(C(=O)NS(=O)(=O)c3cccc4nc(C)ccc34)CCCO2)c1` [Example 25, (2R)-2-{5-ethyl-2-[(2-methoxypyridin-3-yl)oxy]phenyl}-N-(2-methylquinoline-5-sulfonyl)oxolane-2-carboxamide], on F508del/F508del CFTR, the “Emax (% Dual)” value stood at 279 % Dual. Besides, the values for the EC50 at F508del/F508del CFTR, at F508delCFTR (setting [1]) and on F508delCFTR (setting [2]) were 30.6 nM, 580 nM and 1450 nM, respectively. For the same compound, the “Maximum % activity (with co-corrector)” value at F508delCFTR (with co-corrector 2 μM) was 954%. Besides, the Emax at F508delCFTR (without co-corrector) was determined as 476%.
In the case of `COc1ccc(C)cc1[C@]1(C(=O)NS(=O)(=O)c2cccc3nc(C)ccc23)C[C@@](C)(OC)CO1` [Example 31, (2S,4R)-4-methoxy-2-(2-methoxy-5-methylphenyl)-4-methyl-N-(2-methylquinoline-5-sulfonyl)oxolane-2-carboxamide], at F508del/F508del CFTR, the “Emax (% Dual)” value was determined as 117 % Dual and the EC50 is > 5000 nM. For the same compound, the EC50 at F508delCFTR (setting [2]) stood at 5160 nM. The Emax at F508delCFTR (without co-corrector) worked out at 100%.
Regarding `COc1ccccc1[C@H]1CO[C@@](C(=O)NS(=O)(=O)c2cccc3nc(C)ccc23)(c2cc(C)ccc2OC)C1` [Example 38, (2R,4S)-2-(2-methoxy-5-methylphenyl)-4-(2-methoxyphenyl)-N-(2-methylquinoline-5-sulfonyl)oxolane-2-carboxamide], on F508del/F508del CFTR, the “Emax (% Dual)” value is given as 244 % Dual. The values for the EC50 on F508del/F508del CFTR, at F508delCFTR (setting [1]) and at F508delCFTR (setting [2]) were 14.1 nM, 330 nM and 980 nM, respectively. On F508delCFTR (without co-corrector), the Emax was found to be 679%.
For the compound `CCOc1ccc(CC)cc1[C@]1(C(=O)NS(=O)(=O)c2cccc3nc(C)ccc23)CCCO1` [Example 10, (2S)-2-(2-ethoxy-5-ethylphenyl)-N-(2-methylquinoline-5-sulfonyl)oxolane-2-carboxamide], on F508del/F508del CFTR, the “Emax (% Dual)” value was 129 % Dual. In addition, the figures for the EC50 at F508del/F508del CFTR, at F508delCFTR (setting [1]) and on F508delCFTR (setting [2]) were > 300 nM, 2700 nM and 3930 nM, respectively. Moreover, the “Maximum % activity (with co-corrector)” value on F508delCFTR (with co-corrector 2 μM) was found to be 711%. Besides, the Emax at F508delCFTR (without co-corrector) was found to be 303%.

One may read the EC50 as the concentration at which the effect is half-maximal.
